Experimental data published in patent US7655624B2, “Peptide and peptide mimetic conjugates with integrin-inhibitor properties” (Biomet Deutschland GmbH, priority 2000, dated 2010).

System: mouse MC3T3 H1 osteoblast cultures
Assay: Cell adhesion test on RGD-peptide-coated material surfaces
Format: cell-based
Details: adhered cells/inoculated cells x 100; 50 000 cells/cm^2 inoculated on peptide-coated material surface; serum-free medium, 37° C./95% atmospheric humidity, one hour
Procedure: The shaped articles are transferred into 48 wells (Costar, “non-tissue culture treated” Art. No. 3574). To attach the bioactive, cell adhesion-mediating molecules B (where B can be a cyclopeptide, peptide mimetic or linear peptide according to claim 2) to the prepared shaped articles, molecule B-containing stock solutions (“B solutions”) are prepared in a final concentration of 1 mM in one of the aqueous buffers Tris-HCl (10 mM, pH 8.7), Tris-HClO4 (10 mM, pH 8.7) or PBS, pH 7.4. Concentration series with the “B solutions” final concentrations of in each case 1 nm, 10 nm, 100 nm, 1 μm, 10 μm and 100 μm are then prepared by dilution with PBS, pH 7.4. The shaped articles are each covered with 250 μl of the respective B solution and then incubated at room temperature for 18-24 hours. To remove unbound B molecules, the samples are washed three times with PBS, pH 7.4, and stored in PBS, pH 7.4, at 4° C. overnight. […]
The adhesion of mouse MC3T3 H1 osteoblast cultures in vitro to RGD-peptide-coated material surfaces was investigated. In this test, 50 000 cells/cm^2 were inoculated and, after incubation in serum-free medium at 37° C./95% atmospheric humidity for one hour, the proportion of adhered cells was determined. […]

Row | Substance | cell adhesion rate [%]
1 | Cyclo-(Arg-Gly-Asp-DPhe-Lys (N^εH[CO—(CH2)5—NH]2-Lys-[Lys-(CO—CH2—CH2—PO3H2)2]2)) [Example 4] | 75
2 | Cyclo-(Arg-Gly-Asp-DPhe-Lys (N^εH—[CO—(CH2)5—NH]3-Lys-[Lys-(CO—CH2—CH2—PO3H2)2]2) [Example 5] | 62
